This is an account of results in patent publication US10745377B2, “Piperidine or piperazine linked imidazole and triazole derivatives and methods of use” (MERCK SHARP & DOHME CORP., priority 2013, dated 2020).

By IC50 is commonly meant the point on the concentration scale where inhibition reaches its midpoint.

Type in all cases: biochemical
Assay [1] deals with T1, CYP2D6 (Homo sapiens, UniProt P10635).
T1 construct: 0.1 mg/mL protein human liver microsomes (BD Gentest); tissue BD Gentest; host or cells: human liver microsomes
Description: Cocktail assay for CYPs in human liver microsomes: CYP2D6 (dextromethorphan O-demethylation). To be noted: human liver microsomes 0.1 mg/mL, 5 μM dextromethorphan, 10 min at 37° C., 6 concentrations up to 10 μM; read-out: IC50 (nM) CYP2D6.
Description: (§1) Determination of IC50 in a Cocktail Assay for CYPs 1A2, 2C9, 2C19, 2D6 and 3A4
(§2) This assay was performed in a standard 96-well plate design. […] The incubation substrate mix contains 10 μM phenacetin (1A2), 5 μM diclofenac (2C9), 30 μM mephenytoin (2C19), 5 μM dextromethorphan (2D6) and 2 μM midazolam (3A4), 0.1 mg/mL protein human liver microsomes (BD Gentest), 1 mM NAPDH, 3.3 mM MgCl2 and 100 mM potassium phosphate buffer (pH 7.4). The production of the metabolite of each probe substrate was determined after incubation for 10 min at 37° C. Quantitation of the metabolite peak area ratio against an internal standard (tolbutamide) was determined by LC/MS/MS analysis following acetonitrile treatment of the incubations.
(§3) Samples were analyzed in the MRM mode with a SCIEX API-4000 mass spectrometer (Applied Biosystems, Foster City, Calif.), with a Shimadzu LC-20 AD pump (Shimadzu corporation, Kyoto, JP) and a CTC PAL autosampler (Agilent Technologies, Switzerland). A Phenomenex, Luna, 5 μm, 100 A, 2.00×30 mm HPLC column was used for the separation. The mobile phases were: (A) 0.1% formic acid in water and (B) 0.1% formic acid in acetonitrile. The binary gradient was as follows.
(§4) The mass spectrum parameters were as follows:
(§5) The LC/MS/MS parameters for the analytes were as follows.
(§6) The peak area ratio of the analyte to the internal standard was used to quantify the metabolite. The values of peak area ratios in the presence of test compound were compared to those of maximum or minimum controls and were expressed as % inhibition by interpolating between the maximum and minimum peak area ratios. Incubations with no inhibitor were defined as the maxima.
(§7) The following equation was used to calculate the % inhibition: [1−[(X−Low control)/(High control−Low control)]]*100
(§8) For the IC50 calculation, SigmaPlot was used to plot the mean % inhibition versus the test compound concentrations and for non-linear regression analysis of the data. Depending on the range of data points defining the inhibition curve, the data may have been fit to the 4-parameter logistic equation.

Assay [2] deals with T2, CYP3A4 (Homo sapiens, UniProt P08684).
T2 construct: 0.1 mg/mL protein human liver microsomes (BD Gentest); tissue BD Gentest; host or cells: human liver microsomes
Put plainly: Cocktail assay for CYPs in human liver microsomes: CYP3A4 (midazolam 1′-hydroxylation). As to conditions: human liver microsomes 0.1 mg/mL, 2 μM midazolam, 10 min at 37° C., 6 concentrations up to 10 μM; read-out: IC50 (nM) CYP3A4.
Description: as §1, §2, §3, §4, §5, §6, §7, §8

For assay [3], the target named is T3, CYP2C9 (Homo sapiens, UniProt P11712).
T3 construct: 0.1 mg/mL protein human liver microsomes (BD Gentest); tissue BD Gentest; host or cells: human liver microsomes
Description: Cocktail assay for CYPs in human liver microsomes: CYP2C9 (diclofenac 4′-hydroxylation). To be noted: human liver microsomes 0.1 mg/mL, 5 μM diclofenac, 10 min at 37° C., 6 concentrations up to 10 μM; read-out: IC50 (nM) CYP2C9. A general note: Microsomes from liver hold many membrane-bound enzymes, among them those of drug oxidation.
Description: as §1, §2, §3, §4, §5, §6, §7, §8

In assay [4] the target is T4, CYP2C19 (Homo sapiens, UniProt P33261).
T4 construct: 0.1 mg/mL protein human liver microsomes (BD Gentest); tissue BD Gentest; host or cells: human liver microsomes
Put plainly: Cocktail assay for CYPs in human liver microsomes: CYP2C19 (mephenytoin 4′-hydroxylation). As to conditions: human liver microsomes 0.1 mg/mL, 30 μM mephenytoin, 10 min at 37° C., 6 concentrations up to 10 μM; read-out: IC50 (nM) CYP2C19.
Description: as §1, §2, §3, §4, §5, §6, §7, §8

The target in assay [5] is T5, CYP1A2 (Homo sapiens, UniProt P05177).
T5 construct: 0.1 mg/mL protein human liver microsomes (BD Gentest); tissue BD Gentest; host or cells: human liver microsomes
T5 sequence (P05177 1-516): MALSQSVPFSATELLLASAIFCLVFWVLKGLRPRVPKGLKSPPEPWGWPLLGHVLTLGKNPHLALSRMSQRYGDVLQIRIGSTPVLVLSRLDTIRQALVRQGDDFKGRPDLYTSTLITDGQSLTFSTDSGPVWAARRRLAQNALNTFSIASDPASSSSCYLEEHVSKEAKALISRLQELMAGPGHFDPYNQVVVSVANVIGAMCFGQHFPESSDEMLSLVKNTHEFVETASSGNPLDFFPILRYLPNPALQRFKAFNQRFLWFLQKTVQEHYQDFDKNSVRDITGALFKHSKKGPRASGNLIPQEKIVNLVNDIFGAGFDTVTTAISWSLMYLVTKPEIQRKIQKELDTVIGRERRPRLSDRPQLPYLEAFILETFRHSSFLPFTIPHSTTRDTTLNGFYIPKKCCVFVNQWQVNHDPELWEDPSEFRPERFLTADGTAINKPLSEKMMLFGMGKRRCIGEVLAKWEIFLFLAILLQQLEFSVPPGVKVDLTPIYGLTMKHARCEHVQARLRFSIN
Description: Cocktail assay for CYPs in human liver microsomes: CYP1A2 (phenacetin O-deethylation). As to conditions: human liver microsomes 0.1 mg/mL, 10 μM phenacetin, 10 min at 37° C., 6 concentrations up to 10 μM; read-out: IC50 (nM) CYP1A2.
Description: as §1, §2, §3, §4, §5, §6, §7, §8

The structures appear in SMILES notation.

T3 sequence (P11712 whole entry): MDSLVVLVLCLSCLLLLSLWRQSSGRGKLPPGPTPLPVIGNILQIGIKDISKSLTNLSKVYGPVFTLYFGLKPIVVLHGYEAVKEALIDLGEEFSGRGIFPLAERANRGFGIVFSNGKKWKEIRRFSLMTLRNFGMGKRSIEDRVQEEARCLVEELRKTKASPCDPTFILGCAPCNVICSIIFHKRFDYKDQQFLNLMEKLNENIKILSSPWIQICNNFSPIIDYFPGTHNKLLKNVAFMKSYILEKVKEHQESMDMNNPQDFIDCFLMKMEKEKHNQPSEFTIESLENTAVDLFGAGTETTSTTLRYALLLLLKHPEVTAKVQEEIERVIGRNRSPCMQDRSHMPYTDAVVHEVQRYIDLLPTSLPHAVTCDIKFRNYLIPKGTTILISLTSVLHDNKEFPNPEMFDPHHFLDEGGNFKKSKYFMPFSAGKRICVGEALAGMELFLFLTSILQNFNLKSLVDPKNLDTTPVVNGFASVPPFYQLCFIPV
T2 sequence (P08684 whole entry): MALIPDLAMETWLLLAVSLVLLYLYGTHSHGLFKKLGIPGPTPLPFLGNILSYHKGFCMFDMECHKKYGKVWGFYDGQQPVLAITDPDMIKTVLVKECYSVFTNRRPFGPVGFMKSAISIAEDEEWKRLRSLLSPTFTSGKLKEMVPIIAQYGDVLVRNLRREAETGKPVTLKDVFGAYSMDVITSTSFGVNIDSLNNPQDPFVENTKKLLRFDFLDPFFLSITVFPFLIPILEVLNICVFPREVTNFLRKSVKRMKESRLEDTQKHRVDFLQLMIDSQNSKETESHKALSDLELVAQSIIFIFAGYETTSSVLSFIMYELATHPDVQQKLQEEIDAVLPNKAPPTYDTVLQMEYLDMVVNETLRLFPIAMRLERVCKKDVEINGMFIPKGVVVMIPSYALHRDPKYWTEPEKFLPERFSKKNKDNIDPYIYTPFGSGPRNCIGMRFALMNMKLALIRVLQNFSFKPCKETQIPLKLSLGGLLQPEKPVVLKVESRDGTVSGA
T4 sequence (P33261 whole entry): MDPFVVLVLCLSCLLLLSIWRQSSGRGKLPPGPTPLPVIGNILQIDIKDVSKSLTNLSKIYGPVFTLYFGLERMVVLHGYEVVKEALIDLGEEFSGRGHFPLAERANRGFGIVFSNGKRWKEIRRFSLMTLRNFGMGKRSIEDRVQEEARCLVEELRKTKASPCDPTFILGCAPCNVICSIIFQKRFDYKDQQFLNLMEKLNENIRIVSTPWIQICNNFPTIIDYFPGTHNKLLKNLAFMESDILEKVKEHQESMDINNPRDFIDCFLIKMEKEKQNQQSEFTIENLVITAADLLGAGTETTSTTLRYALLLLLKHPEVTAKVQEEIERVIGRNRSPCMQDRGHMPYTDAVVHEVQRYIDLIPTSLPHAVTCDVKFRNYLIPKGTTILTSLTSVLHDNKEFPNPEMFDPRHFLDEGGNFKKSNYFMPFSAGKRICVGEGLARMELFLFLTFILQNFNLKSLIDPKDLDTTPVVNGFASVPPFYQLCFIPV
T1 sequence (P10635 whole entry): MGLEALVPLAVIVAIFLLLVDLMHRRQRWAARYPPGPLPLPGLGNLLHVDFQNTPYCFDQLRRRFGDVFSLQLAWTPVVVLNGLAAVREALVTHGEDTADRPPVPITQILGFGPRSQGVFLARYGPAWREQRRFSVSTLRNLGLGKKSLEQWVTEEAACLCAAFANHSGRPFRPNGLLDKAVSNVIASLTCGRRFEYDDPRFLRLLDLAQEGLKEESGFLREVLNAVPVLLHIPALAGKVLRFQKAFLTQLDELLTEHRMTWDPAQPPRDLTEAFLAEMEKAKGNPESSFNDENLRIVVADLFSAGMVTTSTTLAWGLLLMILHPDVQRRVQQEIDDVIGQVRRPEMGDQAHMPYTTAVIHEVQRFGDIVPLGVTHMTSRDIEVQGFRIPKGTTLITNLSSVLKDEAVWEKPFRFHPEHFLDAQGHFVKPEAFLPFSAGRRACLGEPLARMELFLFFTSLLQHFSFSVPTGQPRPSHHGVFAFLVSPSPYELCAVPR

On to `C[C@H](c1ccc(F)cc1)n1cncc1CN1CCN(Cc2cnc(N3CCN(C)CC3)s2)C(=O)C1` [Compound 69, (R)-4-((1-(1-(4-fluorophenyl)ethyl)-1H-imidazol-5-yl)methyl)-1-((2-(4-methylpiperazin-1-yl)thiazol-5-yl)methyl) piperazin-2-one], for which the IC50 in assay [1] is over 10000 nM; in assay [2], 56 nM; in assay [3], over 10000 nM; in assay [4] it was over 10000 nM; in assay [5], over 10000 nM.
Turning to `CCOC(=O)CN1CCN(Cc2cncn2C(C)c2ccccc2-c2ccc(F)cc2)CC1` (centres unmarked) [Compound 70, ethyl 2-(4-((1-(1-(4′-fluoro-[1,1′-biphenyl]-2-yl)ethyl)-1H-imidazol-5-yl)methyl)piperazin-1-yl)acetate], the IC50 in assay [1] is 7680 nM; in assay [2], 15 nM; in assay [3], over 10000 nM; in assay [4], 5950 nM; in assay [5], over 10000 nM.
For the molecule `CC(c1ccccc1-c1ccc(F)cc1)n1cncc1CN1CCN(CCO)CC1` (centres unmarked) [Compound 71, 2-(4-((1-(1-(4′-fluoro-[1,1′-biphenyl]-2-yl)ethyl)-1H-imidazol-5-yl)methyl)piperazin-1-yl) ethanol], the IC50 is over 10000 nM in assay [1]; 37 nM in assay [2]; over 10000 nM in assay [3]; over 10000 nM in assay [4]; over 10000 nM in assay [5].
With `COCCN1CCN(Cc2cncn2C(C)c2ccccc2-c2ccc(F)cc2)CC1` (centres unmarked) [Compound 72, 1-((1-(1-(4′-fluoro-[1,1′-biphenyl]-2-yl)ethyl)-1H-imidazol-5-yl)methyl)-4-(2-methoxyethyl) piperazine], the IC50 was 1170 nM in assay [1]; 14 nM in assay [2]; over 10000 nM in assay [3]; over 10000 nM in assay [4]; over 10000 nM in assay [5].
